The values below come from PubChem BioAssay AID743483 (Broad Institute, 2014).

For orientation: IC50 means the concentration at which inhibition is half-maximal.

Active and inactive are the calls of the source.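 The calls were made as follows: active = cell killing, with a fitted active concentration at or below twice the top valid dose tested; inconclusive = flat partial cell loss, or a poor curve fit; inactive = effect in the rising direction, plus the rest.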

Test system in the first assay: not listed separately
Put plainly: cytotoxicity in A549 cells, dose response, cytotoxicity control, cell-based, CellTiter-Glo luminescence, dry powder (AID 743483). The note with it: A549 viability, CellTiter-Glo ATP luminescence, 72 h; at 12 µM (top of the series). (Cellular ATP, detected with luciferase, serves as a proxy for viable cell number.)
In the case of `C[C@H](CO)N1C[C@H](C)[C@H](CN(C)C(=O)Nc2ccc(F)cc2)OCCCC[C@H](C)Oc2ccc(NC(=O)C3CCCC3)cc2C1=O`, the activity change, negative = cytotoxicity was 12.9% (inactive).

On to `C[C@H](CO)N1C[C@H](C)[C@H](CN(C)C(=O)Nc2ccccc2)OCCCC[C@H](C)Oc2ccc(NC(=O)CCC(F)(F)F)cc2C1=O`, for which the activity change, negative = cytotoxicity was 12.7% (inactive).

Still in this assay, the particulars now being: A549 viability, CellTiter-Glo ATP luminescence, 72 h; at 26 µM (top of the series).
In the case of `C[C@H](CO)N1C[C@H](C)[C@H](CN(C)C(=O)Nc2ccccc2)OCCCC[C@H](C)Oc2ccc(NC(=O)Nc3ccccc3)cc2C1=O`, the activity change, negative = cytotoxicity was 3.79% (inactive).

Regarding `C[C@H]1CCCCO[C@@H](CN(C)C(=O)Nc2ccc3c(c2)OCO3)[C@@H](C)CN([C@@H](C)CO)C(=O)c2cc(NC(=O)NC3CCCCC3)ccc2O1`, the activity change, negative = cytotoxicity is -15% (inactive).

Take `C[C@H](CO)N1C[C@H](C)[C@H](CN(C)C(=O)Nc2ccc(F)cc2)OCCCC[C@H](C)Oc2ccc(NC(=O)C3CCCCCC3)cc2C1=O`: the activity change, negative = cytotoxicity is -13.4% (inactive).

In the case of `C[C@H](CO)N1C[C@H](C)[C@H](CN(C)C(=O)Nc2ccccc2)OCCCC[C@H](C)Oc2ccc(NC(=O)C3CCCCC3)cc2C1=O`, the activity change, negative = cytotoxicity is -8.81% (inactive).

In the case of `C[C@H](CO)N1C[C@H](C)[C@H](CN(C)C(=O)Nc2ccc(F)cc2)OCCCC[C@H](C)Oc2ccc(NC(=O)C3CCOCC3)cc2C1=O`, the activity change, negative = cytotoxicity was 4.42% (inactive).

For `C[C@H](CO)N1C[C@H](C)[C@H](CN(C)C(=O)Nc2ccc(F)cc2)OCCCC[C@H](C)Oc2ccc(NC(=O)C3CCCCC3)cc2C1=O`, the activity change, negative = cytotoxicity is -8.92% (inactive).

Turning to `C[C@H](CO)N1C[C@H](C)[C@@H](CN(C)C(=O)Nc2cccc3ccccc23)OCCCC[C@H](C)Oc2ccc(NC(=O)C3CCCCC3)cc2C1=O`, the activity change, negative = cytotoxicity was -15.8% (inactive).

As for `C[C@H](CO)N1C[C@H](C)[C@H](CN(C)C(=O)Nc2ccc3c(c2)OCO3)OCCCC[C@H](C)Oc2ccc(NC(=O)NC3CCCCC3)cc2C1=O`, the activity change, negative = cytotoxicity was -4.36% (inactive).

Consider `C[C@H](CO)N1C[C@H](C)[C@H](CN(C)C(=O)Nc2ccc(F)cc2)OCCCC[C@H](C)Oc2ccc(NC(=O)Nc3ccccc3)cc2C1=O`, for which the activity change, negative = cytotoxicity is -4.11% (inactive).

In the case of `C[C@H](CO)N1C[C@H](C)[C@H](CN(C)C(=O)Nc2ccc(F)cc2)OCCCC[C@H](C)Oc2ccc(NC(=O)C3CCC3)cc2C1=O`, the activity change, negative = cytotoxicity is -1.54% (inactive).

On to `C[C@@H]1CCCCO[C@H](CN(C)C(=O)Nc2cccc3ccccc23)[C@H](C)CN([C@@H](C)CO)C(=O)c2cc(NC(=O)C3CCCCC3)ccc2O1`, for which the activity change, negative = cytotoxicity was -22.6% (inactive).

For `C[C@@H]1CCCCO[C@@H](CN(C)C(=O)Nc2cccc3ccccc23)[C@H](C)CN([C@@H](C)CO)C(=O)c2cc(NC(=O)C3CCCCC3)ccc2O1`, the activity change, negative = cytotoxicity was -18.7% (inactive).

With `C[C@H](CO)N1C[C@H](C)[C@H](CN(C)C(=O)Nc2ccc3ccccc3c2)OCCCC[C@H](C)Oc2ccc(NC(=O)C3CCCCC3)cc2C1=O`, the activity change, negative = cytotoxicity was 2.71% (inactive).

Take `C[C@H](CO)N1C[C@H](C)[C@H](CN(C)C(=O)Nc2ccc(F)cc2)OCCCC[C@H](C)Oc2ccc(NC(=O)NC3CCCCC3)cc2C1=O`: the activity change, negative = cytotoxicity is -3.88% (inactive).

`C[C@H]1CCCCO[C@@H](CN(C)C(=O)Nc2ccc(F)cc2)[C@@H](C)CN([C@@H](C)CO)C(=O)c2cc(NC(=O)C3CCCCC3)ccc2O1`: the activity change, negative = cytotoxicity is -21.4% (inactive).

Consider `C[C@H](CO)N1C[C@H](C)[C@H](CN(C)C(=O)Nc2cccc3ccccc23)OCCCC[C@H](C)Oc2ccc(NC(=O)CCC(F)(F)F)cc2C1=O`, for which the activity change, negative = cytotoxicity is -6.54% (inactive).

For the molecule `C[C@H](CO)N1C[C@H](C)[C@H](CN(C)C(=O)Nc2cccc(F)c2)OCCCC[C@H](C)Oc2ccc(NC(=O)C3CCCCC3)cc2C1=O`, the activity change, negative = cytotoxicity was -12.5% (inactive).

In the case of `C[C@H](CO)N1C[C@H](C)[C@H](CN(C)C(=O)Nc2ccccc2)OCCCC[C@H](C)Oc2ccc(NC(=O)Nc3ccc4c(c3)OCO4)cc2C1=O`, the activity change, negative = cytotoxicity is -21.2% (inactive).

`C[C@H](CO)N1C[C@H](C)[C@H](CN(C)C(=O)Nc2ccccc2)OCCCC[C@H](C)Oc2ccc(NC(=O)NC3CCCCC3)cc2C1=O`: the activity change, negative = cytotoxicity is -4.06% (inactive).

Consider `C[C@H](CO)N1C[C@H](C)[C@H](CN(C)C(=O)Nc2ccc3c(c2)OCO3)OCCCC[C@H](C)Oc2ccc(NC(=O)C3CCCCC3)cc2C1=O`, for which the activity change, negative = cytotoxicity was -3.37% (inactive).

For `C[C@@H]1CCCCO[C@@H](CN(C)C(=O)Nc2cccc3ccccc23)[C@H](C)CN([C@H](C)CO)C(=O)c2cc(NC(=O)C3CCCCC3)ccc2O1`, the activity change, negative = cytotoxicity is -11.3% (inactive).

For the molecule `Cc1ccc(NC(=O)N(C)C[C@@H]2OCCCC[C@H](C)Oc3ccc(NC(=O)C4CCCCC4)cc3C(=O)N([C@H](C)CO)C[C@@H]2C)cc1`, the activity change, negative = cytotoxicity is -2.73% (inactive).

Take `CC(C)(C)c1ccc(-c2nc(-c3ccncc3)no2)cc1`: the activity change, negative = cytotoxicity was -8.72% (inactive).

On to `CC(=O)Nc1ccc2c(c1)C(=O)N([C@H](C)CO)C[C@H](C)[C@H](CN(C)C(=O)Nc1ccc(F)cc1)OCCCC[C@H](C)O2`, for which the activity change, negative = cytotoxicity is -6.53% (inactive).

Turning to `C[C@H](CO)N1C[C@H](C)[C@H](CN(C)C(=O)Nc2ccc(C(F)(F)F)cc2)OCCCC[C@H](C)Oc2ccc(NC(=O)NC3CCCCC3)cc2C1=O`, the activity change, negative = cytotoxicity is -9.21% (inactive).

Turning to `C[C@@H]1CCCCO[C@H](CN(C)C(=O)Nc2cccc3ccccc23)[C@H](C)CN([C@H](C)CO)C(=O)c2cc(NC(=O)C3CCCCC3)ccc2O1`, the activity change, negative = cytotoxicity was -21.8% (inactive).

With `C[C@H](CO)N1C[C@H](C)[C@H](CN(C)C(=O)Nc2ccc(F)cc2)OCCCC[C@H](C)Oc2ccc(NC(=O)Nc3ccc(F)cc3)cc2C1=O`, the activity change, negative = cytotoxicity is -13.3% (inactive).

`C[C@@H]1CCCCO[C@@H](CN(C)C(=O)Nc2cccc3ccccc23)[C@@H](C)CN([C@H](C)CO)C(=O)c2cc(NC(=O)C3CCCCC3)ccc2O1`: the activity change, negative = cytotoxicity was -24.4% (inactive).

As to `COc1ccc(NC(=O)N(C)C[C@@H]2OCCCC[C@H](C)Oc3ccc(NC(=O)NC4CCCCC4)cc3C(=O)N([C@H](C)CO)C[C@@H]2C)cc1`, the activity change, negative = cytotoxicity is 3.04% (inactive).

With `C[C@H]1CCCCO[C@@H](CN(C)C(=O)Nc2ccccc2)[C@@H](C)CN([C@@H](C)CO)C(=O)c2cc(NC(=O)NC3CCCCC3)ccc2O1`, the activity change, negative = cytotoxicity is -3.65% (inactive).

As for `C[C@H](CO)N1C[C@H](C)[C@H](CN(C)C(=O)Nc2cccc3ccccc23)OCCCC[C@H](C)Oc2ccc(NC(=O)c3ccccc3)cc2C1=O`, the activity change, negative = cytotoxicity is -18.3% (inactive).

With `C[C@H](CO)N1C[C@H](C)[C@H](CN(C)C(=O)Nc2ccccc2F)OCCCC[C@H](C)Oc2ccc(NC(=O)C3CCCCC3)cc2C1=O`, the activity change, negative = cytotoxicity was -18.7% (inactive).

For `C[C@H](CO)N1C[C@H](C)[C@H](CN(C)C(=O)Nc2cccc3ccccc23)OCCCC[C@H](C)Oc2ccc(NC(=O)NC3CCCCC3)cc2C1=O`, the activity change, negative = cytotoxicity was -18.8% (inactive).

With `C[C@@H]1CN([C@@H](C)CO)C(=O)c2cc(NC(=O)C3CCCCC3)ccc2O[C@@H](C)CCCCO[C@@H]1CN(C)C(=O)Nc1cccc2ccccc12`, the activity change, negative = cytotoxicity was -22.9% (inactive).

As for `COc1ccc(NC(=O)N(C)C[C@@H]2OCCCC[C@H](C)Oc3ccc(NC(=O)C4CCCCC4)cc3C(=O)N([C@H](C)CO)C[C@@H]2C)cc1`, the activity change, negative = cytotoxicity is -14.8% (inactive).

On to `C[C@@H]1CCCCO[C@H](CN(C)C(=O)Nc2cccc3ccccc23)[C@@H](C)CN([C@@H](C)CO)C(=O)c2cc(NC(=O)C3CCCCC3)ccc2O1`, for which the activity change, negative = cytotoxicity is -19.7% (inactive).

On to `C[C@H](CO)N1C[C@H](C)[C@H](CN(C)C(=O)Nc2cccc3ccccc23)OCCCC[C@H](C)Oc2ccc(NC(=O)C3CCCCC3)cc2C1=O`, for which the activity change, negative = cytotoxicity was -19% (inactive).

In the case of `C[C@H](CO)N1C[C@H](C)[C@H](CN(C)C(=O)Nc2ccc(F)cc2)OCCCC[C@H](C)Oc2ccc(NC(=O)C3CC3)cc2C1=O`, the activity change, negative = cytotoxicity is 2.37% (inactive).

In a further assay the test system is A549 viability, CellTiter-Glo ATP luminescence, 72 h. Described as above.
Settings: not given
In the case of `C[C@@H]1CN([C@@H](C)CO)C(=O)c2cc(NC(=O)C3CCCCC3)ccc2O[C@@H](C)CCCCO[C@H]1CN(C)C(=O)Nc1cccc2ccccc12`, the concentration for half-maximal inhibition (IC50) is 6.41 µM.

Consider `C[C@H]1CCCCO[C@@H](CN(C)S(=O)(=O)c2ccc(Cl)cc2)[C@@H](C)CN([C@@H](C)CO)C(=O)c2cc(NC(=O)NC3CCCCC3)ccc2O1`, for which the half-inhibitory concentration (IC50) was 19.1 µM.

On to `C[C@@H]1CN([C@H](C)CO)C(=O)c2cc(NC(=O)C3CCCCC3)ccc2O[C@@H](C)CCCCO[C@H]1CN(C)C(=O)Nc1cccc2ccccc12`, for which the IC50 was 21.8 µM.

On to `COc1ccc(S(=O)(=O)N(C)C[C@@H]2OCCCC[C@H](C)Oc3ccc(NS(=O)(=O)c4ccc(Cl)cc4)cc3C(=O)N([C@@H](C)CO)C[C@@H]2C)cc1`, for which the concentration for half-maximal inhibition (IC50) was 22.1 µM.
